From EP0060954A1, “Derivatives of fluorophenacyl amines and their therapeutic use” (LABORATOIRE L. LAFON Société anonyme dite:, priority 1981, dated 1982)
Where “and” joins values, the source holds several entries; their conditions need not be identical. Identical values can stand only once.

Experiments:
souris [1] = experiment: Toxicity: maximal non-lethal dose DL-0, intraperitoneal; format: in vivo; details: mouse, i.p.
Experimental: La dose maximale non mortelle, DL-0, est supérieure à 128 mg/kg et inférieure à 256 mg/kg, chez la souris, par voie I.P. 2°) - Action sur le SNC
(§1) Le CRL 40827, en solution dans de l'eau distillée, a été administré par voie intrapéritonéale sous un volume de 20 ml/kg chez la souris mâle et un volume de 5 ml/kg chez le rat mâle. 1°) - Toxicité
La dose maximale non mortelle, DL-0, est supérieure à 64 mg/kg et inférieure à 128 mg/kg chez la souris mâle.
Le CRL 40854, en solution dans de l'eau distillée, a été administré par voie intrapéritonéale sous un volume de 20 ml/kg chez la souris màle et de 5 ml/kg chez le rat màle.
La dose maximale non mortelle DL-0 est supérieure à 128 mg/kg et inférieure à 256 mg/kg chez la souris.

[2] = tested on: rat anesthésié au Nembutal; experiment: Biliary secretion, rat anaesthetised with Nembutal; format: in vivo; details: 1 to 3 h after I.V. injection of 5 mg/kg and 25 mg/kg
Experimental: (§2) Chez le chien anesthésié au Nembutal, le débit biliaire normal recueilli en 30 min est de 1,5 ml; le débit biliaire augmente après injection intraduodénale de CRL 40827 et passe à 1,75 ml pour 2,5 mg/kg de CRL 40827, à 2,25 ml pour 5 mg/kg et à 2,5 ml pour 10 mg/kg. Chez le rat anesthésié au Nembutal, le débit biliaire augmente 1 à 3 h après injection I.V. de CRL 40827 aux doses de 5 mg/kg et 25 mg/kg.

rat = experiment: Interaction with apomorphine, rat; format: in vivo; details: i.p. 30 min before apomorphine 0,5 mg/kg s.c.
Experimental: as §1
Le CRL 40 827 est administré à des lots de 6 rats 30 min avant l'injection sous-cutanée de 0,5 mg/kg d'apomorphine.
(§3) En procédant selon les modalités opératoires données ci-dessus pour le CRL 40827, on observe ce qui suit.

souris [3] = experiment: Motility reduced by habituation to the enclosure; format: in vivo; details: mouse; high dose 34 mg/kg
Experimental: Après 18 h de séjour dans les actimètres, les souris (6 par dose, 12 témoins) reçoivent le CRL 40827. Elles sont aussitôt replacées dans leurs enceintes respectives et, 30 min plus tard, on enregistre leur motilité pendant 30 min.
as §3

souris mâles = experiment: Intergroup aggressiveness test (number of fights after removal of the partition); format: in vivo; details: mouse; dose not given
Source text: Des essais comparatifs ont été entrepris pour mettre en évidence quels sont les effets chez l'animal qui permettent de distinguer les produits selon l'invention de leurs homologues fluorés connus. Parmi ces essais, on a résumé ceux concernant les propriétés antiagressives. Plus précisément, on a évalué la diminution de l'agressivité intergroupes selon la technique suivante : a.près avoir séjourné pendant 3 semaines de part et d'autre d'une cloison opaque séparant leur cage par le milieu, des groupes de trois souris mâles de 20 g chacune environ reçoivent, par voie intrapéritonéale, les produits à tester en solution dans de l'eau distillée, les animaux témoins ne recevant que de l'eau distillée par voie intrapéritonéale. Une demi-heure plus tard, les deux groupes d'une même cage sont réunis par retrait de la cloison opaque et on note le nombre de combats qui surviennent en 10 min. On a utilisé trois cages pour chaque produit à tester et six cages pour le lot témoin ne recevant pas les produits à tester.
Les résultats du tableau I ci-après donnent la diminution de l'agressivité intergroupes par rapport au lot témoin, tous les produits à tester étant administrés à la dose de 8 mg/kg par voie intrapéritonéale. […]

cobaye = experiment: Local anaesthetic effect, intradermal injection, pin-prick test; format: in vivo; details: guinea pig, intradermal 0,2 ml, concentrations 0,5 and 1%
Experimental: L'effet anesthésique a été étudié chez le cobaye après injection du CRL 40827 par voie intradermique sous un volume de 0,2 ml aux concentrations de 0,1, 0,5 et 1% (3 cobayes par dose). Chaque animal reçoit le sérum physiologique, la procaine et le CRL 40827 dans des zones délimitées.
Le test qui consiste en une série de six piqûres de la zone injectée est réalisé 5, 10, 15, 20, 25 et 30 min après l'injection.

souris [4] = experiment: Interaction with reserpine (hypothermia, ptosis); format: in vivo; details: mouse
Experimental: Quatre heures après l'injection intrapéritonéale de 2,5 mg/kg de réserpine, des lots de 6 souris reçoivent le CRL 40827.
as §3

[5] = tested on: chien anesthésié au Nembutal; experiment: Biliary secretion, dog anaesthetised with Nembutal; format: in vivo; details: normal 1,5 ml
Experimental: as §2

souris [6] = experiment: Motility reduced by hypoxic aggression (acute hypobaric anoxia); format: in vivo; details: mouse
Experimental: Une demi-heure après avoir reçu le CRL 40827, les souris (10 par dose, 20 témoins) sont soumises à une anoxie hypobare aiguë (dépression de 8 x 10^4 Pa en 90 s, détente de 45 s), puis elles sont placées en actimètre où leur motilité est enregistrée pendant 10 min.
as §3

homme = experiment: Clinical use as sedative and antidepressant agents; format: in vivo; details: clinic
[7] = tested on: rat éveillé génétiquement hypertendu; experiment: Cardiovascular action, awake genetically hypertensive rat; format: in vivo
souris [8] = experiment: Interaction with oxotremorine; format: in vivo; details: mouse
Experimental: Le CRL 40827 est administré à des lots de 6 souris 30 min avant l'injection intrapéritonéale de 0,5 mg/kg d'oxotrémo- rine. On observe que, dès la dose de 0,5 mg/kg, le CRL 40827 antagonise l'action hypothermisante de l'oxotrémorine; cet effet est très net à 32 mg/kg.
as §3

souris [9] = experiment: Asphyxic anoxia (gallamine triethiodide); format: in vivo; details: mouse; highest dose 34 mg/kg, 30 min before gallamine triethiodide i.p.
Experimental: Des lots de 10 souris reçoivent le CRL 40827 30 min avant l'administration intrapéritonéale d: 34 mg/kg de triiodoéthy- late de gallamine. A la plus forte dose (34 mg/kg),le CRL 40827 empêche l'apparition des convulsions et de la mort chez 40% des animaux.
as §3

souris [10] = experiment: Spontaneous motility (actimeter); format: in vivo; details: mouse, recorded 30 min, 30 min after dosing
Experimental: Une demi-heure après avoir reçu le CRL 40827, les souris (6 par dose, 12 témoins) sont placées en actimètre où leur motilité est enregistrée pendant 30 min.
as §3

rats = experiment: Interaction with amphetamine (stereotypies); format: in vivo, rat; details: rat
Experimental: L'amphétamine (2 mg/kg) est injectée par voie intrapéritonéale à des lots de 6 rats, 30 min après l'administration de CRL 40827. […] Interaction avec la réserpine
as §3

souris [11] = experiment: Four-plate test, traction and electroshock; format: in vivo; details: mouse, 30 min after dosing
Experimental: Le test est pratiqué sur des lots de 10 souris, 30 min après l'administration de CRL 40827.
as §3

chien anesthésié = experiment: Cardiovascular and respiratory action, anaesthetised dog; format: in vivo

## CC(C)(C)NCC(O)c1ccccc1F (stereo not drawn) [CRL 40827, chlorhydratede 1-(2-fluorophényl)-2-tertiobutylamino-1-éthanol]
Souris [1]
  dose maximale non mortelle, DL-0: > 64 mg/kg and < 128 mg/kg
[2]
  débit biliaire: augmente
rat
  stéréotypies induites par l'apomorphine: laisse inchangées
Souris [3]
  activité motrice (souris habituées à l'enceinte): semble provoquer une reprise modérée
Souris mâles
  agressivité intergroupes / effet antiagressif: diminue l'agressivité intergroupes
cobaye
  effet anesthésique local: présente un effet anesthésique local
Souris [4]
  ptôsis réserpinique: sans modifier
Souris [4]; from 0,5 mg/kg, 4 h after reserpine 2,5 mg/kg i.p.
  hypothermie réserpinique: combat nettement
[5]; dog, 5 mg/kg intraduodenal
  débit biliaire recueilli en 30 min: 2,25 ml
[5]; dog, 10 mg/kg intraduodenal
  débit biliaire recueilli en 30 min: 2,5 ml
[5]; dog, 2,5 mg/kg intraduodenal
  débit biliaire recueilli en 30 min: 1,75 ml
Souris [6]
  récupération motrice après anoxie hypobare: n'entraîne pas d'amélioration
homme
  résultats cliniques dans le domaine psychotrope en tant qu'agents sédatifs et antidépresseurs: bons résultats
[7]
  pression artérielle et fréquence cardiaque: hypotenseur et tachycardisant
Souris [8]
  signes de stimulation cholinergique périphérique (oxotrémorine): laisse inchangés
  tremblements provoqués par l'oxotrémorine: ne modifie pas
Souris [8]; 32 mg/kg
  action hypothermisante de l'oxotrémorine (antagonisme): très net
Souris [8]; from 0,5 mg/kg, 30 min before oxotremorine 0,5 mg/kg i.p.
  action hypothermisante de l'oxotrémorine: antagonise
Souris [9]
  animaux chez lesquels l'apparition des convulsions et de la mort est empêchée: 40%
Souris [10]
  activité motrice spontanée: ne modifie pratiquement pas
rats; 4 mg/kg
  index de stéréotypies (amphétamine): diminution isolée
rats; amphetamine 2 mg/kg i.p. 30 min after the compound
  stéréotypies amphétaminiques: ne modifie pas
Souris [11]
  effets convulsivants de l'électrochoc: à forte dose, s'oppose aux effets convulsivants
  incapacité motrice (traction): ne provoque pas d'incapacité motrice majeure
  nombre de passages punis (test des quatre plaques): n'entraîne pas d'augmentation
Chien anesthésié; Canis lupus familiaris, dog, read-out: dose from which the effets hypertenseurs de la noradrénaline are diminished
  minimal effective dose: 1 mg/kg
Chien anesthésié; anaesthetised dog
  pression artérielle et fréquence cardiaque: hypotenseur et tachycardisant
Chien anesthésié; dog
  dose of maximal effect on the effets hypertenseurs de la noradrénaline: ~10 mg/kg
Chien anesthésié; in vivo
  débit cardiaque: reste égal
  débits sanguins locaux: n'augmentent pas
  respiration: stimule la respiration
  résistances vasculaires des territoires explorés (vertébral, fémoral et rénal) et résistance périphérique totale: diminue
  travail du ventricule gauche et diastole: diminue le travail du ventricule gauche et raccourcit la diastole
